Patent US11078207B2, “Substituted pyrrolo[2,3-d]pyrimidines as HER2 inhibitors” (TAIHO PHARMACEUTICAL CO., LTD., priority 2019, dated 2021)
Like-named read-outs stand apart in the source and are kept apart here.

What was measured:
[1] = target: HER2 exon 20 insertion mutant (HER2ex20insYVMA, A775_G776insYVMA) (Homo sapiens, UniProt P04626, DUP772-775); experiment: Inhibitory action (in vitro) against HER2 exon 20 insertion mutant phosphorylation activity; format: biochemical; conditions: 30 min pre-incubation, ATP 200 μM, 25° C. 220 minutes
From the text: In order to determine conditions for a method of measuring the in vitro inhibitory activity of a compound against HER2 exon 20 insertion mutant phosphorylation activity, as in the case of HER2, ProfilerPro Peptide 22 was used as a substrate. A purified recombinant human HER2 exon 20 insertion mutant (A775_G776insYVMA) protein is shown in SEQ ID NO: 7, and was purchased from SignalChem. Upon the measurement of the inhibitory activity of the compound, first, the compound of the present invention was diluted stepwise with dimethyl sulfoxide (DMSO). Subsequently, the HER2 exon 20 insertion mutant protein and the compound of the present invention in DMSO solution (final concentration of DMSO: 5%) were added into a buffer for the kinase reaction (13.5 mM Tris (pH 7.5), 2 mM dithiothreitol, and 0.009% Tween 20), and the obtained mixture was then pre-incubated at 25° C. for 30 minutes. Thereafter, the substrate peptide (final concentration: 1 μM), manganese chloride (final concentration: 25 mM), magnesium chloride (final concentration: 20 mM), and ATP (final concentration: 200 μM) were added into the reaction mixture, and the thus obtained mixture was then incubated at 25° C. for 220 minutes, so that the kinase reaction was carried out. To the reaction solution, EDTA was added to a final concentration of 30 mM, so as to terminate the reaction. Finally, using LabChip (registered trademark) EZ Reader II (PerkinElmer), an unphosphorylated substrate peptide (S) and a phosphorylated peptide (P) were separated and detected according to microchannel capillary electrophoresis.

[2] = Evaluation of oral absorbability; format: in vivo, BALB/cA mice; conditions: mouse; plasma, oral 50 mg/kg/day, BALB/cA mice
Experimental: The compound of the present invention was suspended or dissolved in 0.5% HPMC aqueous solution and 0.1 N hydrochloric acid, and the obtained suspension or solution was orally administered to BALB/cA mice (CLEA Japan, Inc.) at a dose of 50 mg/kg/day. At 0.5, 1, 2, 4 and 6 hours after completion of the oral administration, blood was collected from the facial vein over time, so as to obtain plasma. The concentration of the compound in the obtained plasma was measured by LC-MS/MS, and the oral absorbability of the present compound was evaluated.

Ba/F3-HER2insYVMA cells = Ba/F3-HER2insYVMA cells (Homo sapiens, UniProt P04626, DUP772-775, cells depend on it); experiment: Growth inhibitory activity against HER2 exon 20 insertion mutant expressing cell line; format: cell-based, mouse; conditions: 3 days, CellTiter-Glo 2.0, read-out: HER2ex20insYVMA cell growth inhibitory activity IC50 value
Experimental: Growth inhibitory activity against the HER2 exon 20 insertion mutant was measured using Ba/F3 cells that were a mouse B lymphocyte precursor cell line, into which a human HER2 exon 20 insertion mutant gene had been introduced. The Ba/F3 cells were maintained in an RPMI-1640 medium (Thermo Fisher Scientific) supplemented with 10% fetal bovine serum (FBS), 100 U/mL penicillin, 100 μg/mL streptomycin (Thermo Fisher Scientific) and 1 ng/mL mouse interleukin-3 (mIL-3) (CST).
Upon evaluation of cell growth inhibitory activity, the Ba/F3-HER2insYVMA cells were suspended in an RPMI-1640 medium supplemented with 10% FBS, 100 U/mL penicillin, and 100 μg/mL streptomycin. The cell suspension was seeded in each well of a 96-well flat-bottom microplate, and was then cultured in a 5% carbon dioxide gas-containing culture vessel at 37° C. for 1 day. The compound of the present invention was dissolved in DMSO, and was then diluted with DMSO or the medium used in the suspension of the cells. The obtained solution was then added to each well of the culture plate, so that the final concentration of DMSO became 0.2%. The obtained mixture was further cultured in the 5% carbon dioxide gas-containing culture vessel at 37° C. for 3 days. After completion of the culture for 3 days in the presence of the compound, the cells were counted using CellTiter-Glo 2.0 (manufactured by Promega), and the growth inhibition percentage was then calculated according to the following equation. […] Growth inhibitory percentage (%)=(C−T)/(C)×100 T: Emission intensity from the well to which the test compound was added C: Emission intensity from the well to which the test compound was not added

HER2 = target: T1, HER2 (Homo sapiens, UniProt P04626); experiment: Inhibitory effect (in vitro) on HER2 phosphorylation activity; format: biochemical; conditions: recombinant human HER2, ATP 5 μM, 25° C. 30 minutes
T1 construct: purchased Carna Biosciences, Inc
From the text: In order to determine conditions for a method of measuring the in vitro inhibitory activity of a compound against HER2 phosphorylation activity, based on the report regarding a HER2 kinase reaction using, as a substrate, a peptide having the same sequence (5-FAM-[…]-CONH2) as that of ProfilerPro Peptide 22 of PerkinElmer (Xie H et al., PLoS One. 2011; 6(7): e21487), ProfilerPro Peptide 22 was used as a substrate. A purified recombinant human HER2 protein used in the present test was purchased from Carna Biosciences, Inc. Upon the measurement of the inhibitory activity of the compound, first, the compound of the present invention was diluted stepwise with dimethyl sulfoxide (DMSO). […] To the reaction solution, EDTA was added to a final concentration of 30 mM, so as to terminate the reaction. Finally, using LabChip (registered trademark) EZ Reader II (PerkinElmer), an unphosphorylated substrate peptide (S) and a phosphorylated peptide (P) were separated and detected according to microchannel capillary electrophoresis.

SK-BR-3 cells = experiment: Growth inhibitory activity against HER2 expressing cell line SK-BR-3; format: cell-based; conditions: Homo sapiens, SK-BR-3, 72 h; 3 days, CellTiter-Glo 2.0
Experimental: SK-BR-3 cells as a HER2 overexpressing human breast cancer cell line were suspended in a McCoy's 5a medium (manufactured by Life Technologies) supplemented with 10% fetal bovine serum. The cell suspension was seeded in each well of a 384-well flat-bottom microplate, and was then cultured in a 5% carbon dioxide gas-containing culture vessel at 37° C. for 1 day. Thereafter, the compound of the present invention was dissolved in DMSO, and the compound was diluted to 500 times the final concentration in DMSO. The compound in the DMSO solution was diluted with DMSO solution or the medium used in the suspension of the cells, and the obtained solution was then added to each well of the culture plate so that the final concentration of DMSO was 0.2%. The obtained mixture was further cultured in the 5% carbon dioxide gas-containing culture vessel at 37° C. for 3 days. After completion of the culture for 3 days in the presence of the compound, the cells were counted using CellTiter-Glo 2.0 (manufactured by Promega), and the growth inhibition percentage was then calculated according to the following equation. […] Growth inhibitory percentage (%)=(C−T)/(C)×100 T: Emission intensity from the well to which the test compound was added C: Emission intensity from the well to which the test compound was not added

[3] = Evaluation of brain penetration properties; format: in vivo, BALB/cA mice; conditions: mouse, 0.5 hours after oral 50 mg/kg/day, BALB/cA mice; for Kp at 0.5 h: read-out: Kp value (Compound concentration in brain/plasma)
[4] = brain, read-out: Compound concentration in brain
[5] = plasma, read-out: Compound concentration in plasma

Chain of Ba/F3-HER2insYVMA cells (P04626 with tags, fused parts or gaps DUP772-775): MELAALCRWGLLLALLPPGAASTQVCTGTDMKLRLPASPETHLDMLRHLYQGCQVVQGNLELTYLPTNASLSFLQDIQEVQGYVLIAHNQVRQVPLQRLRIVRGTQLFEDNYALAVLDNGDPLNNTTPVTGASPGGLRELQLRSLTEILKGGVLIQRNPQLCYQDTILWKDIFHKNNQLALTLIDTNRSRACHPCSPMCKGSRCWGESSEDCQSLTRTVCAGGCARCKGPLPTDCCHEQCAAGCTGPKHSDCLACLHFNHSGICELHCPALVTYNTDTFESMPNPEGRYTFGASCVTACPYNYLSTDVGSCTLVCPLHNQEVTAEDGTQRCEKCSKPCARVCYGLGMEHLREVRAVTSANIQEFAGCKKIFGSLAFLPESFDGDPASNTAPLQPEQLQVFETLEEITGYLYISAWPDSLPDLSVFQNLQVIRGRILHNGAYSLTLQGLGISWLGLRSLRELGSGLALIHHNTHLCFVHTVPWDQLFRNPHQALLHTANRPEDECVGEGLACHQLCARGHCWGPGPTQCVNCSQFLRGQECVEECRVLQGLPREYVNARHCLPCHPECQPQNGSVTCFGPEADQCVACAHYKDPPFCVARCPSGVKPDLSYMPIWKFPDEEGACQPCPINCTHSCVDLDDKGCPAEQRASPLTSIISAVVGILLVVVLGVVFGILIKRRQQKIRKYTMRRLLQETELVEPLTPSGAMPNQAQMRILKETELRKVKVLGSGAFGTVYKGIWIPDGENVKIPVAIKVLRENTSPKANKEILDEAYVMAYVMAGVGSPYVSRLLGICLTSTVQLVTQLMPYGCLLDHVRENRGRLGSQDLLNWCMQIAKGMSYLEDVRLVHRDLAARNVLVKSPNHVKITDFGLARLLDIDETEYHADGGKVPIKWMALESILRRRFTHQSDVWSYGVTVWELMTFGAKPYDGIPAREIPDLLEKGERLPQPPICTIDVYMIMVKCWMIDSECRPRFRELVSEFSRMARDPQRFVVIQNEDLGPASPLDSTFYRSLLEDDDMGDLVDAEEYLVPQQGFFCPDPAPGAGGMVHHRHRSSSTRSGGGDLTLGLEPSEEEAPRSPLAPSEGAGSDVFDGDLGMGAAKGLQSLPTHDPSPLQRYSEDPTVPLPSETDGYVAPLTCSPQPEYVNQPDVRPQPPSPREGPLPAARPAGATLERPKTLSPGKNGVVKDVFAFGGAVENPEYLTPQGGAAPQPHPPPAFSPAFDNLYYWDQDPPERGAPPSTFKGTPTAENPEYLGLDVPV
Chain of HER2 exon 20 insertion mutant (HER2ex20insYVMA, A775_G776insYVMA) (P04626 with tags, fused parts or gaps DUP772-775): as above
T1 sequence (P04626 23-1255): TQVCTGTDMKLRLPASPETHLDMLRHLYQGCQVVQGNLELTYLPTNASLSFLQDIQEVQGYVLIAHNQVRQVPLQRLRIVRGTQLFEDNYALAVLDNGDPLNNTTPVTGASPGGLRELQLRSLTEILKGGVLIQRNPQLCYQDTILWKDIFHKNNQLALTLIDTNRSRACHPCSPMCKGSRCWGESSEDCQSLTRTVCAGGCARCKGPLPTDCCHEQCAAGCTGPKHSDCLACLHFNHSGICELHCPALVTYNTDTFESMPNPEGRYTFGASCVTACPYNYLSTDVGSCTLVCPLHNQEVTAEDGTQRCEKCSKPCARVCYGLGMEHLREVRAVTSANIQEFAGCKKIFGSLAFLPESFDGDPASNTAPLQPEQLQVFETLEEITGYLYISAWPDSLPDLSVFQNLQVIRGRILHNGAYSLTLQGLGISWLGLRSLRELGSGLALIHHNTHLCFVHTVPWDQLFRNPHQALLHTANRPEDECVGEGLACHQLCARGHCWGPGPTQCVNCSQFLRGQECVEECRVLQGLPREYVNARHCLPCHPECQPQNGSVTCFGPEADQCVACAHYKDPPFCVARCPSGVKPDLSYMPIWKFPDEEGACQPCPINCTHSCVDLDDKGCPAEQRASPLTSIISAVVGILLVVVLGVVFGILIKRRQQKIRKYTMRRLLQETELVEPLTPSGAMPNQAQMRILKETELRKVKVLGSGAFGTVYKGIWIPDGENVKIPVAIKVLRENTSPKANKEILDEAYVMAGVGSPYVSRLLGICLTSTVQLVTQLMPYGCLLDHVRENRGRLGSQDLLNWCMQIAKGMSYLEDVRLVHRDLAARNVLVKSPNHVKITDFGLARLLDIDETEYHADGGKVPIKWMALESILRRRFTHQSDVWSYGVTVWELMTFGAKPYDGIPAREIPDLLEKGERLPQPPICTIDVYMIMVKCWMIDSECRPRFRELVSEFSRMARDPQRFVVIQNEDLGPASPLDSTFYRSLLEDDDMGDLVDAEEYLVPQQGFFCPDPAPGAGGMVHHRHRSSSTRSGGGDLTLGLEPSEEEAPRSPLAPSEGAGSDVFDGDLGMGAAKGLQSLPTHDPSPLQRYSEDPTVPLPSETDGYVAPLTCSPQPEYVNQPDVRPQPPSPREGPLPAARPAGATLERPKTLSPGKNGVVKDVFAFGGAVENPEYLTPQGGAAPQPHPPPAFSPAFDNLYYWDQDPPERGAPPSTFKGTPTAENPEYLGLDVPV

| SMILES | IC50 [1] [nM] | AUC(0-t) [2] [µM·h] | GI50 (Ba/F3-HER2insYVMA cells) [nM] | IC50 (HER2) [nM] | IC50 (SK-BR-3 cells) [nM] | concentration at 0.5 h [3, 4] [µM] | Kp at 0.5 h ([3]; brain) | concentration at 0.5 h [3, 5] [µM] |
| --- | --- | --- | --- | --- | --- | --- | --- | --- |
| C=CC(=O)N1C[C@H](n2c(C#CC)c(C(=O)N[C@H](C)c3ccccc3)c3c(N)ncnc32)C[C@@H]1CC [Example 16, 7-((3R,5S)-1-acryloyl-5-ethylpyrrolidin-3-yl)-4-amino-N—((R)-1-phenylethyl)-6-(prop-1-yn-1-yl)-7H-pyrrolo[2,3-d]pyrimidine-5-carboxamide] | 0.44 | 15 | 9.7 | 3.3 | 1.4 | 4.4 | 0.35 | 12 |
| C=CC(=O)N1C[C@H](n2c(C#CC)c(C(=O)N[C@H](C)c3cccc(Cl)c3)c3c(N)ncnc32)C[C@@H]1C [Example 6, 7-((3R,5S)-1-acryloyl-5-methylpyrrolidin-3-yl)-4-amino-N—((R)-1-(3-chlorophenyl)ethyl)-6-(prop-1-yn-1-yl)-7H-pyrrolo[2,3-d]pyrimidine-5-carboxamide] | < 0.3 | 17 | 28 | 2.8 | 10 | 1.3 | 0.17 | 7.5 |
| C=CC(=O)N1C[C@H](n2c(C#CC)c(C(=O)N[C@@H](c3ccccc3)C(F)(F)F)c3c(N)ncnc32)C[C@@H]1C [Example 8, 7-((3R,5S)-1-acryloyl-5-methylpyrrolidin-3-yl)-4-amino-6-(prop-1-yn-1-yl)-N—((S)-2,2,2-trifluoro-1-phenylethyl)-7H-pyrrolo[2,3-d]pyrimidine-5-carboxamide] | < 0.3 | 15 | 26 | 10 | 14 | 3.3 | 0.33 | 9.9 |
| C=CC(=O)N1C[C@H](n2c(C#CC(C)(C)OC)c(C(=O)N[C@H](C)c3ccccc3)c3c(N)ncnc32)C[C@@H]1C [Example 13, 7-((3R,5S)-1-acryloyl-5-methylpyrrolidin-3-yl)-4-amino-6-(3-methoxy-3-methylbut-1-yn-1-yl)-N—((R)-1-phenylethyl)-7H-pyrrolo[2,3-d]pyrimidine-5-carboxamide] | 0.44 | 18 | 23 | 5.2 | 14 | 2.8 | 0.22 | 13 |

More lines, now with the values ahead:

| IC50 [1] [nM] | AUC(0-t) [2] [µM·h] | GI50 (Ba/F3-HER2insYVMA cells) [nM] | IC50 (HER2) [nM] | IC50 (SK-BR-3 cells) [nM] | concentration at 0.5 h [3, 4] [µM] | Kp at 0.5 h ([3]; brain) | concentration at 0.5 h [3, 5] [µM] | SMILES |
| --- | --- | --- | --- | --- | --- | --- | --- | --- |
| < 0.3 | 31 | 29 | 3.2 | 6.6 | 2.7 | 0.23 | 12 | C=CC(=O)N1C[C@H](n2c(C#CC3CC3)c(C(=O)N[C@H](C)c3ccccc3)c3c(N)ncnc32)C[C@@H]1C [Example 11, 7-((3R,5S)-1-acryloyl-5-methylpyrrolidin-3-yl)-4-amino-6-(cyclopropylethynyl)-N—((R)-1-phenylethyl)-7H-pyrrolo[2,3-d]pyrimidine-5-carboxamide] |
| < 0.3 | 27 | 27 | 2.2 | 8.1 | 2.1 | 0.21 | 9.9 | C=CC(=O)N1C[C@H](n2c(C#CCC)c(C(=O)N[C@H](C)c3ccccc3)c3c(N)ncnc32)C[C@@H]1C [Example 14, 7-((3R,5S)-1-acryloyl-5-methylpyrrolidin-3-yl)-4-amino-6-(but-1-yn-1-yl)-N—((R)-1-phenylethyl)-7H-pyrrolo[2,3-d]pyrimidine-5-carboxamide] |
| < 0.3 | 15 | 12 | 2.5 | 2.8 | 1.8 | 0.27 | 6.6 | C=CC(=O)N1C[C@H](n2c(C#CC)c(C(=O)N[C@H](C)c3ccccc3)c3c(N)ncnc32)C[C@@H]1C [Example 2, 7-((3R,5S)-1-acryloyl-5-methylpyrrolidin-3-yl)-4-amino-N—((R)-1-phenylethyl)-6-(prop-1-yn-1-yl)-7H-pyrrolo[2,3-d]pyrimidine-5-carboxamide] |
| < 0.3 | 50 | 29 | 2.2 | 13 | 2.4 | 0.18 | 13 | C=CC(=O)N1C[C@H](n2c(C#CC3CC3)c(C(=O)N[C@H](C)c3cccc(F)c3F)c3c(N)ncnc32)C[C@@H]1C [Example 10, 7-((3R,5S)-1-acryloyl-5-methylpyrrolidin-3-yl)-4-amino-6-(cyclopropylethynyl)-N—((R)-1-(2,3-difluorophenyl)ethyl)-7H-pyrrolo[2,3-d]pyrimidine-5-carboxamide] |
| < 0.3 | 15 | 14 | 2.3 | 3.4 | 1.6 | 0.22 | 7.7 | C=CC(=O)N1C[C@H](n2c(C#CC3CC3)c(C(=O)N[C@H](C)c3ccccc3)c3c(N)ncnc32)C[C@@H]1COC [Example 18, 7-((3R,5R)-1-acryloyl-5-(methoxymethyl)pyrrolidin-3-yl)-4-amino-6-(cyclopropylethynyl)-N—((R)-1-phenylethyl)-7H-pyrrolo[2,3-d]pyrimidine-5-carboxamide] |
